Literature values as cited in patent publication US5731007A, “Pharmaceutical composition for skin diseases” (Yungjin Pharmaceutical Co., Ltd., priority 1994, dated 1998).
“Also recorded” adds a separate entry of the source. Structures can show the parent of a compound that is named as a salt.

Test system: gram positive and negative bacteria
Settings: including strains resistant to antibiotics such as kanamycin

In the case of `CNC[C@@H]1CC[C@@H](N)[C@@H](O[C@H]2[C@H](O)[C@@H](O[C@H]3OC[C@](C)(O)[C@H](NC)[C@H]3O)[C@H](N)C[C@@H]2N)O1` [Micronomicin sulfate, micronomicin sulfate], the “antibacterial activity” value is given as “wide antibacterial spectrum against both gram positive and negative bacteria; also recorded: effective bacteriocidal activity against infections by strains resistant to various antibiotics such as kanamycin”.
